Results as given in patent US11572373B2, “Maytansinoid-based drug delivery systems” (LADRX CORPORATION, priority 2017, dated 2023).

Test system: human tumor xenograft models
Test: Antitumor activity in human tumor xenograft mice models
Type: in vivo
Details: five human tumor xenograft models in nude mice, i.v. on day 1, 8, 15, and 22
From the text: This included starting tumor volumes in the range of approximately 80-110 mm^3 but also initial starting tumor volumes of up to approximately 400 mm^3. Furthermore, in most cases therapy with albumin-binding maytansinoids 30 and 31 induced long-term remissions and a decrease in Relative Tumor Volume (RTV). […] Experimental procedure and the results in the tumor-bearing mice models are described in detail in Examples 11-19 and FIGS. 3-16.
Female immunodeficient NMRI nude mice, from Charles River, received unilateral tumor implants subcutaneously in the left flank while under isoflurane anesthesia with human cancer tumors until tumors were palpable and had reached a volume of 80-200 mm^3 (unless otherwise stated).
Animals were kept in cages, the temperature inside the cages maintained at 25±1° C. with a relative humidity of 45-65% and an air change rate in the cage of 60-fold per hour. They were kept under a 14 h light: 10 h dark, artificial light cycle. The animals were fed with autoclaved Teklad Global 19% Protein Extruded Diet (T.2019S.12) from Envigo RMS SARL and had access to sterile filtered and acidified (pH 2.5) tap water, which was changed twice weekly. Feed and water were provided ad libitum. […] Animals were routinely monitored twice daily on working days and daily on Saturdays and Sundays. […] Relative body weights (RBW) of individual animals were calculated by dividing the individual absolute body weight on day X (BWx) by the individual body weight on the day of randomization multiplied by 100%. The tumor volume was determined by a two-dimensional measurement with calipers on the day of randomization (day 0) and then twice weekly. Tumor volumes were calculated according to the following equation: Tumor Vol [mm^3]=1 [mm]×w^2 [mm^2]×0.5, where “1” is the length and “w” is width of the tumor. The relative volume of an individual tumor on day X (RTVx) was calculated by dividing the absolute individual tumor volume [mm^3] of the respective tumor on day X (Tx) by the absolute individual tumor volume of the same tumor on the day of randomization multiplied by 100%. […]

## COc1cc2cc(c1Cl)N(C)C(=O)C[C@H](OC(=O)COc1cccc(/C(C)=N/NC(=O)c3ccc(NC(=O)CCCCCN4C(=O)C=CC4=O)cc3S(=O)(=O)O)c1)[C@]1(C)O[C@H]1[C@H](C)[C@@H]1C[C@@](O)(NC(=O)O1)[C@H](OC)/C=C/C=C(\C)C2 [Compound 31]
  antitumor activity: partial and complete tumor regressions
